Reference: patent publication US8304422B2, “Compositions and methods for inhibition of the JAK pathway” (Rigel Pharmaceuticals, Inc., priority 2007, dated 2012)

tested on: BaF3 V617F cells; UKE-1; assay: Proliferation Assay (Cell Titer-Glo; Example 7); assay type: cell-based; conditions: proliferation 72 hours, inhibit JAK2 activity, cell line (BaF3 V617F or UKE-1) not stated
Procedure, shortened: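 Proliferation IC50s reflect 72 h compound exposure at 37 °C, read by Cell Titer-Glo luminescence. Compound was serially diluted 3-fold from a 5 mM DMSO stock and added as a 2× solution; BaF3 V617F cells were grown in RPMI/10% FBS, UKE-1 in Iscove's DMEM with FBS, equine serum and hydrocortisone.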

How did the IC50 turn out when CCOc1c(C)cc(Nc2ncc(Cl)c(Nc3ccc(CNS(=O)(=O)NC4CC4)cc3C)n2)cc1C [II-176, 5-Chloro-N2-(3,5-dimethyl-4-ethoxyphenyl)-N4-[2-methyl-4-((N-cyclopropylamino)sulfonylamino)methylphenyl]-2,4-pyrimidinediamine] was run?
The IC50 was 190 nM.

How did the IC50 turn out when COc1c(C)cc(Nc2ncc(C)c(Nc3ccc(CNS(=O)(=O)N(C)C)cc3)n2)cc1C [II-99, 4-[(4-(Dimethylamino)sulfonylamino)methylphenyl]-N2-(3,5-dimethyl-4-methoxyphenyl)-5-methyl-2,4-pyrimidinediamine] was run?
The IC50 was 103 nM.

With Cc1cc(CNS(=O)(=O)NC2CC2)ccc1Nc1nc(Nc2cc(C)c(OC(C)C)c(C)c2)ncc1Cl [II-177, 5-Chloro-N2-(3,5-dimethyl-4-(1-methylethoxy)phenyl)-N4-[2-methyl-4-((N-cyclopropylamino)sulfonylamino)methylphenyl]-2,4-pyrimidinediamine] as the compound, how does the IC50 read?
Its IC50 is 643 nM.

How did the IC50 turn out when “5-Chloro-N4-[4-(N-cyclopropyl-N-propionylsulfonylamino)methylphenyl]-N2-[3,5-dimethyl-4-methoxyphenyl]-2,4-pyrimidinediamine [II-218]” was run?
Its IC50 is 248 nM.

Cc1cc(CNS(=O)(=O)C2CC2)cc(Nc2nc(Nc3ccc(N4CCN(C5CC6CCC5C6)CC4)cc3)ncc2C)c1 (stereo not drawn) [II-77, N-(3-(2-(4-(4-(bicyclo[2.2.1]heptan-2-yl)piperazin-1-yl)phenylamino)-5-methylpyrimidin-4-ylamino)-5-methylbenzyl)cyclopropanesulfonamide] was tested. Which IC50 did it give?
Its IC50 is 1320 nM.

With COc1cc(Nc2ncc(C)c(Nc3ccc(CNS(=O)(=O)C4CC4)cc3)n2)cc(C)c1OC [II-197, 5-Methyl-N4-[4-(N-cyclopropylsulfonylamino)methylphenyl]-N2-[3,4-dimethoxy-5-methylphenyl]-2,4-pyrimidinediamine] as the compound, how does the IC50 read?
Its IC50 is 92 nM.

Which IC50 does the source give for O=S(=O)(NCc1cccc(Nc2nc(Nc3ccc(-c4cccnc4)cc3)ncc2Cl)c1)C1CC1 [II-194, 5-Chloro-N4-[3-(N-cyclopropylsulfonylamino)methylphenyl]-N2-[4-(3-pyridinyl)phenyl]-2,4-pyrimidinediamine] here?
The IC50 was 1340 nM.

How did the IC50 turn out when Cc1nc2cc(Nc3ncc(Cl)c(Nc4cccc(CNS(=O)(=O)C5CC5)c4)n3)ccc2[nH]1 [III-7, 5-Chloro-N4-[3-(N-cyclopropylsulfonylaminomethyl)phenyl]-N2-[2-methylbenzamidazol-5-yl]-2,4-pyrimidinediamine] was run?
Its IC50 is 644 nM.

With COc1c(C)cc(Nc2ncc(Cl)c(Nc3cccc(CNS(=O)(=O)C4CC4)c3)n2)cc1C [II-192, 5-Chloro-N4-[3-(N-cyclopropylsulfonylamino)methylphenyl]-N2-[3,5-dimethyl-4-methoxyphenyl]-2,4-pyrimidinediamine] as the compound, how does the IC50 read?
Its IC50 is 378 nM.

With CCNS(=O)(=O)NCc1ccc(Nc2nc(Nc3ccc(C4CCN(C)CC4)cc3)ncc2C)cc1 [II-124, N4-[(4-(Ethylamino)sulfonylamino)methylphenyl]-5-methyl-N2-[4-(1-methyl-4-piperidinyl)pheny]-2,4-pyrimidinediamine] as the compound, how does the IC50 read?
Its IC50 is 1160 nM.

How did the IC50 turn out when CN1CCN(c2ccc(Nc3ncc(Cl)c(Nc4ccc(CNS(N)(=O)=O)cc4)n3)cc2)CC1 [II-148, N4-[4-(Aminosulfonylamino)methylphenyl]-5-chloro-N2-[4-(4-methyl-1-piperazinyl)phenyl]-2,4-pyrimidinediamine] was run?
The IC50 was 1320 nM.

CCNS(=O)(=O)NCc1ccc(Nc2nc(Nc3cc(C)c(OC)c(Cl)c3)ncc2C)cc1 [II-118, N2-(3-Chloro-4-methoxy-5-methylphenyl)-N4-[(4-(ethylamino)sulfonylamino)methylphenyl]-5-methyl-2,4-pyrimidinediamine] was tested. Which IC50 did it give?
Its IC50 is 229 nM.

Which IC50 does the source give for Cc1cc(Nc2ncc(Cl)c(Nc3ccc(CNS(=O)(=O)NC4CC4)cc3)n2)ccc1N1CCN(C)CC1 [II-168, 5-Chloro-N4-[4-((N-cyclopropylamino)sulfonylamino)methylphenyl]-N2-[3-methyl-4-(4-methyl-1-piperazinyl)phenyl]-2,4-pyrimidinediamine] here?
Its IC50 is 2050 nM.

COc1c(C)cc(Nc2ncc(Cl)c(Nc3ccc4c(c3)S(=O)(=O)NCC4)n2)cc1C [VII-1, 5-Chloro-N4-[3,4-dihydro-1,1-dioxide-2H-1,2-benzothiazin-7-yl]-N2-[3,5-dimethyl-4-methoxyphenyl]-2,4-pyrimidinediamine] was tested. Which IC50 did it give?
Its IC50 is 229 nM.

How did the IC50 turn out when “5-Chloro-N4[4-(N-cyclopropylsulfonylamino)ethylphenyl]-N2-[4-(6-methoxy-2-methyl-methoxy)phenyl]-2,4-pyrimidinediamine [II-50]” was run?
Its IC50 is 472 nM.

How did the IC50 turn out when Cc1cnc(Nc2ccc(N3CCN(C)CC3)cc2)nc1Nc1ccc(CNS(=O)(=O)N(C)C)cc1 [II-104, N4-[(4-(Dimethylamino)sulfonylamino)methylphenyl]-5-methyl-N2-[4-(4-methyl-1-piperazinyl)phenyl]-2,4-pyrimidinediamine] was run?
The IC50 was 349 nM.

For CCNS(=O)(=O)NCc1cccc(Nc2nc(Nc3cc(C)c(OCC)c(C)c3)ncc2C)c1 [II-134, N2-(3,5-Dimethyl-4-ethoxyphenyl)-N4-[(3-(ethylamino)sulfonylamino)methylphenyl]-5-methyl-2,4-pyrimidinediamine], which IC50 is on record?
Its IC50 is 231 nM.

Which IC50 does the source give for Cc1cc(Nc2ncc(C)c(Nc3ccc(CNS(=O)(=O)C4CC4)cc3)n2)ccc1N1C[C@@H]2C[C@H]1CN2C [II-184, N4-[4-(N-Cyclopropylsulfonylamino)methylphenyl]-5-methyl-N2-[3-methyl-4-[(1S,4S)-5-methyl-2,5-diazabicyclo[2.2.1]hept-2-yl]phenyl]-2,4-pyrimidinediamine] here?
Its IC50 is 892 nM.

For CCc1cnc(Nc2ccc(N3CCC(F)(F)CC3)cc2)nc1Nc1ccc(CNS(=O)(=O)C2CC2)cc1 [II-87, N4-[4-(N-Cyclopropylsulfonylamino)methylphenyl]-N2-[4-(4,4-difluoro-1-piperidinyl)phenyl]-5-ethyl-2,4-pyrimidinediamine], which IC50 is on record?
Its IC50 is 5270 nM.

How did the IC50 turn out when “5-Chloro-N2-[3,4-dimethyl-4-(2-(4-morpholinyl)ethoxy)phenyl]-N4-[2-methyl-4-((N-cyclopropylamino)sulfonylamino)methylphenyl]-2,4-pyrimidinediamine [II-183]” was run?
Its IC50 is 142 nM.

CN1CCN(c2ccc(Nc3ncc(C(F)(F)F)c(Nc4ccc(CNS(=O)(=O)C5CC5)cc4)n3)cc2)CC1 [II-127, N4-[4-(N-Cyclopropylsulfonylamino)methylphenyl]-N2-[4-(4-methyl-1-piperazinyl)phenyl]-5-trifluoromethyl-2,4-pyrimidinediamine] was tested. Which IC50 did it give?
Its IC50 is 338 nM.

With CCCOc1c(C)cc(Nc2ncc(C)c(Nc3ccc(CNS(=O)(=O)NC4CC4)cc3)n2)cc1C [II-165, N4-[4-((N-Cyclopropylamino)sulfonylamino)methylphenyl]-N2-(3,5-dimethyl-4-propoxyphenyl)-5-Methyl-2,4-pyrimidinediamine] as the compound, how does the IC50 read?
The IC50 was 323 nM.

For Cc1cc(CNS(=O)(=O)NC2CC2)ccc1Nc1nc(Nc2ccc(N3CCN(C)CC3)c(C)c2)ncc1Cl [II-181, 5-Chloro-N4-[2-methyl-4-((N-cyclopropylamino)sulfonylamino)methylphenyl]-N2-[3-methyl-4-(4-methyl-1-piperazinyl)phenyl]-2,4-pyrimidinediamine], which IC50 is on record?
Its IC50 is 4330 nM.

With COc1cc(Nc2ncc(Cl)c(Nc3ccc(CNS(=O)(=O)C4CC4)cc3)n2)cc(OC)c1OC [II-186, 5-Chloro-N4-[4-(N-cyclopropylsulfonylaminomethyl)phenyl]-N2-[3,4,5-trimethoxyphenyl]-2,4-pyrimidinediamine] as the compound, how does the IC50 read?
The IC50 was 128 nM.

CCc1cnc(Nc2cc(C)c(OC)c(OC)c2)nc1Nc1ccc(CNS(=O)(=O)C2CC2)cc1 [II-82, N4-[4-(N-Cyclopropylsulfonylamino)methylphenyl]-N2-(3,4-dimethoxy-5-methylphenyl)-5-ethyl-2,4-pyrimidinediamine] was tested. Which IC50 did it give?
The IC50 was 797 nM.

With CN1CCN(c2ccncc2Nc2ncc(Cl)c(Nc3ccc(CNS(=O)(=O)C4CC4)cc3)n2)CC1 [II-216, 5-Chloro-N4-[4-(N-cyclopropylsulfonylamino)methylphenyl]-N2-[4-(N-methylpiperizin-4-yl)pyridine-3-yl]-2,4-pyrimidinediamine] as the compound, how does the IC50 read?
Its IC50 is 246 nM.

Which IC50 does the source give for Cc1cnc(Nc2cc(C3CC3)n[nH]2)nc1Nc1ccc(CNS(=O)(=O)C2CC2)cc1 [VIII-11, 5-Methyl-N4-[4-(N-cyclopropylsulfonylamino)methylphenyl]-N2-[5-cyclopropylpyrazol-3-yl)-2,4-pyrimidinediamine] here?
The IC50 was 388 nM.

How did the IC50 turn out when CCNS(=O)(=O)NCc1ccc(Nc2nc(Nc3cc(C)c(OC)c(C)c3)ncc2C)cc1 [II-116, N2-(3,5-Dimethyl-4-methoxyphenyl)-N4-[(4-(ethylamino)sulfonylamino)methylphenyl]-5-methyl-2,4-pyrimidinediamine] was run?
Its IC50 is 73.7 nM.

With “5-Methyl-N4-[4-(N-cyclopropylsulfonylamino)methylphenyl]-N2-[4-(1-morpholinomethyl)phenyl]-2,4-pyrimidinediamine [II-222]” as the compound, how does the IC50 read?
Its IC50 is 946 nM.

For “5-Methyl-N4-[4-(N-cyclopropylsulfonylamino)methylphenyl]-N2-[2,4-dimethyl-5-chlorophenyl]-2,4-pyrimidinediamine [II-212]”, which IC50 is on record?
Its IC50 is 2200 nM.

How did the IC50 turn out when COc1cc(Nc2ncc(Cl)c(Nc3cccc(CNS(=O)(=O)C4CC4)c3)n2)cc(OC)c1OC [II-189, 5-Chloro-N4-[3-(N-cyclopropylsulfonylamino)methylphenyl]-N2-[3,4,5-trimethoxyphenyl]-2,4-pyrimidinediamine] was run?
Its IC50 is 546 nM.

How did the IC50 turn out when CCCOc1c(C)cc(Nc2ncc(Cl)c(Nc3ccc(CNS(=O)(=O)C4CC4)cc3)n2)cc1C [II-221, 5-Chloro-N4-[4-(N-cyclopropylsulfonylamino)methylphenyl]-N2-[3,5-dimethyl-4-(1-propoxy)phenyl]-2,4-pyrimidinediamine] was run?
Its IC50 is 238 nM.

Which IC50 does the source give for CC(C)(C)Oc1ccc(Nc2ncc(Cl)c(Nc3ccc(CCNS(=O)(=O)C4CC4)cc3)n2)cc1 [II-47, 5-Chloro-N4[4-(N-cyclopropylsulfonylamino)ethylphenyl]-N2-[4-(2,6-dimethyl-ethoxy)phenyl]-2,4-pyrimidinediamine] here?
The IC50 was 487 nM.
